Patent US20250367301A1, “PHARMACEUTICAL COMPOSITION FOR PREVENTING OR TREATING TRIPLE-NEGATIVE BREAST CANCER, COMPRISING OLIGONUCLEOTIDE AS ACTIVE INGREDIENT” (INTEROLIGO CORPORATION, priority 2021, published 2025)

What was measured:
4T1 Luc2 cell line = test: Intracellular uptake by flow cytometry in 4T1 Luc2 cells; format: cell-based, mouse; conditions: flow cytometry of 4T1 cells
Description: In this experiment, 4T1 Luc2 cell line (ATCC, USA) was used and the cells were cultured using the same method described in 3-1-1.
The medium was replaced with RPMI medium containing 5% FBS and treated with drugs for additional 2, 4, 6, 24 hours, and then DAPI staining was performed after the reaction was completed. The finished samples were compared using a flow cytometer (Beckman Coulter CytoFlex (3 lasers)) to measure the degree of fluorescence expression against the control cell line.

[1] = tested on: 4T1-Luc2 triple-negative breast cancer orthotopic tumor resection model; test: Antitumor efficacy via intraperitoneal injection in TNBC orthotopic animal model (tumor resection model); format: in vivo, female Balb/c mice
[2] = tested on: TNBC metastasis after surgical resection; conditions: after 50 days post-insertion of the drug/hydrogel patch at the resection site; mice; cited from earlier work

## (Gem)2-[TGG]4[TTG][TGG]5 (NNTGGTGGTGGTGGTTGTGGTGGTGGTGGTGG; two 5' gemcitabine; modified_base 1 OTHER; 2', 2'-difluoro deoxycytidine; modified_base 2 OTHER) [IO101L, modified oligonucleotide, two gemcitabine at the 5′ end]
4T1 Luc2 cell line; FIG. 4
  intracellular influx compared with the IO101L-control group: significantly superior
[1]; 2 mg intraperitoneal every other day, 10 times, after tumor resection
  mice with confirmed lung metastasis: 3 out of 7
[1]; intraperitoneal, post-TNBC tumor resection
  inhibition of cancer metastasis compared to positive control gemcitabine: significantly inhibited cancer metastasis
[1]; mouse, in vivo, ip
  mice surviving until day 76: 4 out of 7

## Cy5-(Gem)(Gem)[TGG]4[TTG][TGG]5 [Cy5-labeled IO101L]
4T1 Luc2 cell line; after 24 hours
  Cy5-labeled IO101L found to enter the cells: over 80%

## Nc1ncnc2c1ncn2C1O[C@@H]2CO[P@@](=O)([S-])O[C@H]3[C@@H](O)[C@H](n4cnc5c(N)ncnc54)O[C@@H]3CO[P@@](=O)([S-])O[C@@H]1[C@@H]2O.[Na+].[Na+] (stereo partly shown) [STING-RR]
[2]
  survival rate: 60%

## Nc1ccn([C@@H]2O[C@H](CO)[C@@H](O)C2(F)F)c(=O)n1 [gemcitabine, 2′,2′-difluorodeoxycytidine, reference compound]
[1]; 1 mg intraperitoneal every other day, 10 times, after tumor resection, 5 mice
  time within which all mice died (lung metastasis): ≤ 30 days
